Results published in the NIST ThermoML archive (doi:10.1021/acs.jced.9b00507).

Assay: xn = mol fraction of the nth substance listed
Conditions: 100 kPa, Liquid; for viscosity: Concentric cylinders viscometry; for mass density: Vibrating tube method

CCCCCCn1cc[n+](C)c1.O=[N+]([O-])[O-] [1-hexyl-3-methylimidazolium nitrate] + CCCCCCCCCCO
Conditions | mass density [kg/m3] | viscosity [mPa·s]
293.15 K, x1 = 0.0818 | 855.4 | 18.62
293.15 K, x1 = 0.1583 | 879.2 | 24.27
293.15 K, x1 = 0.2414 | 904.7 | 33.34
293.15 K, x1 = 0.3482 | 937.1 | 50.7
293.15 K, x1 = 0.4414 | 964.8 | 73.79
293.15 K, x1 = 0.5593 | 999.2 | 119.12
293.15 K, x1 = 0.6481 | 1024.6 | 173.38
293.15 K, x1 = 0.7414 | 1050.8 | 261.82
293.15 K, x1 = 0.8496 | 1080.4 | 419.76
293.15 K, x1 = 0.9402 | 1104.7 | 625.17
293.15 K, x1 = 1 | 1120.3 | 804.17
298.15 K, x1 = 0.0818 | 851.9 | 15
298.15 K, x1 = 0.1583 | 875.7 | 18.75
298.15 K, x1 = 0.2414 | 901.3 | 23.93
298.15 K, x1 = 0.3482 | 933.6 | 33.81
298.15 K, x1 = 0.4414 | 961.4 | 47.42
298.15 K, x1 = 0.5593 | 995.8 | 74.3
298.15 K, x1 = 0.6481 | 1021.3 | 111.69
298.15 K, x1 = 0.7414 | 1047.5 | 171
298.15 K, x1 = 0.8496 | 1077.3 | 276.06
298.15 K, x1 = 0.9402 | 1101.7 | 417.45
298.15 K, x1 = 1 | 1117.5 | 545.25
303.15 K, x1 = 0.0818 | 848.4 | 11.86
303.15 K, x1 = 0.1583 | 872.2 | 14.39
303.15 K, x1 = 0.2414 | 897.7 | 17.58
303.15 K, x1 = 0.3482 | 930 | 22.91
303.15 K, x1 = 0.4414 | 957.8 | 30.27
303.15 K, x1 = 0.5593 | 992.2 | 45.39
303.15 K, x1 = 0.6481 | 1017.7 | 65.77
303.15 K, x1 = 0.7414 | 1044 | 98.7
303.15 K, x1 = 0.8496 | 1073.9 | 168.66
303.15 K, x1 = 0.9402 | 1098.4 | 267.65
303.15 K, x1 = 1 | 1114.3 | 369.14
308.15 K, x1 = 0.0818 | 845 | 9.51
308.15 K, x1 = 0.1583 | 868.7 | 10.86
308.15 K, x1 = 0.2414 | 894.2 | 12.85
308.15 K, x1 = 0.3482 | 926.4 | 16.03
308.15 K, x1 = 0.4414 | 954.2 | 20.04
308.15 K, x1 = 0.5593 | 988.6 | 28.44
308.15 K, x1 = 0.6481 | 1014.2 | 39.63
308.15 K, x1 = 0.7414 | 1040.5 | 60.67
308.15 K, x1 = 0.8496 | 1070.5 | 108.57
308.15 K, x1 = 0.9402 | 1095.1 | 183.87
308.15 K, x1 = 1 | 1111.1 | 257.59
313.15 K, x1 = 0.0818 | 841.4 | 7.41
313.15 K, x1 = 0.1583 | 865.1 | 8.15
313.15 K, x1 = 0.2414 | 890.6 | 8.97
313.15 K, x1 = 0.3482 | 922.8 | 10.16
313.15 K, x1 = 0.4414 | 950.5 | 11.94
313.15 K, x1 = 0.5593 | 984.9 | 16.52
313.15 K, x1 = 0.6481 | 1010.5 | 23.5
313.15 K, x1 = 0.7414 | 1036.9 | 35.97
313.15 K, x1 = 0.8496 | 1067 | 67.47
313.15 K, x1 = 0.9402 | 1091.7 | 123.98
313.15 K, x1 = 1 | 1107.8 | 185.67
318.15 K, x1 = 0.0818 | 837.9 | 5.98
318.15 K, x1 = 0.1583 | 861.6 | 6.21
318.15 K, x1 = 0.2414 | 887 | 6.44
318.15 K, x1 = 0.3482 | 919.2 | 7.1
318.15 K, x1 = 0.4414 | 946.9 | 8.12
318.15 K, x1 = 0.5593 | 981.4 | 9.93
318.15 K, x1 = 0.6481 | 1007 | 13.43
318.15 K, x1 = 0.7414 | 1033.5 | 22.34
318.15 K, x1 = 0.8496 | 1063.7 | 47.97
318.15 K, x1 = 0.9402 | 1088.5 | 92.14
318.15 K, x1 = 1 | 1104.7 | 140.18
323.15 K, x1 = 0.0818 | 834.4 | 4.95
323.15 K, x1 = 0.1583 | 858 | 5.14
323.15 K, x1 = 0.2414 | 883.4 | 5.28
323.15 K, x1 = 0.3482 | 915.6 | 5.6
323.15 K, x1 = 0.4414 | 943.3 | 6.07
323.15 K, x1 = 0.5593 | 977.8 | 7.03
323.15 K, x1 = 0.6481 | 1003.5 | 9.04
323.15 K, x1 = 0.7414 | 1030 | 15.67
323.15 K, x1 = 0.8496 | 1060.4 | 36.3
323.15 K, x1 = 0.9402 | 1085.3 | 73.7
323.15 K, x1 = 1 | 1101.6 | 110.94
